Patent publication US12319655B2, “RAF kinase inhibitors and methods of use thereof” (Deciphera Pharmaceuticals, LLC, priority 2021, dated 2025)
pIC50: −log10 of the molar value.

How the values were obtained:
H2405 cells = experiment: H2405 Cell Proliferation Assay (2); format: cell-based; conditions: Homo sapiens, NCI-H2405
Procedure: H2405 Cell Proliferation Assay (2)
H2405 cells (catalog #CRL-5994) are obtained from the American Type Culture Collect (ATTC, Manassas, VA). Briefly, cells were grown in RPMI 1640 supplemented with 5% characterized fetal bovine serum (Invitrogen, Carlsbad, CA) and 1% Penicillin/Streptomycin/L-Glutamine at 37° C., 5% CO2, and 95% humidity. Cells are expanded until reaching 70-95% confluency at which point they are sub-cultured or harvested for assay use. A serial dilution of test compound is dispensed into a 384-well black clear bottom plate in triplicate. Seven hundred fifty cells are added per well in 50 μL complete growth medium in the 384-well plate. Plates are incubated for 67-72 h at 37° C., 5% CO2, and 95% humidity. At the end of the incubation, 10 μL of a 440 μM solution of resazurin (Sigma, St. Louis, MO) in PBS is added to each well of the plate and plates are incubated for an additional 5-6 h at 37° C., 5% CO2, and 95% humidity. Plates are read on a Synergy2 or equivalent reader (Biotek, Winooski VT) using an excitation of 540 nm and an emission of 600 nm. Data is analyzed using Prism software (GraphPad, San Diego, CA) to calculate IC50 values

[1] = molecular target: A-Raf kinase (SEQ. ID No: 1) (Homo sapiens (Human), UniProt P10398, Y301D/Y302D); experiment: Biochemical Assay for A-Raf (1); conditions: Table J, biochemical assay (1); read-out: ARAF (1)
Method in brief: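 IC50 values were derived by four-parameter sigmoidal fitting of percent inhibition, calculated from reaction rates over the 4–5 h window. Absorbance at 340 nm was tracked for 6 h at 30 °C via coupled PK/LDH NADH depletion. Conditions: 1 mM ATP, 30.1 nM MEK substrate, 5.55 nM A-Raf (Y301D/Y302D), Tris pH 7.5, 1% DMSO.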

[2] = molecular target: B-Raf kinase (SEQ. ID NO: 2) (Homo sapiens (Human), UniProt P15056); experiment: Biochemical Assay for B-Raf (1); conditions: Table J, biochemical assay (1); read-out: BRAF (1)
Method in brief: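 IC50 derived by four-parameter sigmoidal fit of percent inhibition, normalised to uninhibited and reference-inhibitor controls, using reaction rates over 4–5 h. Coupled spectrophotometric readout (NADH loss at 340 nm, 6 h, 30° C.); 1 mM ATP, 30.1 nM MEK, 0.13 nM B-Raf, pH 7.5 Tris buffer, 1% DMSO.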

A375 cells = experiment: A375 Cell Proliferation Assay (1); format: cell-based; conditions: Homo sapiens, A-375
Method in brief: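 Resazurin fluorescence (excitation 540 nm, emission 600 nm, after a further 5-6 h) gave IC50s from triplicate compound dilution series.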

Chain of B-Raf kinase (SEQ. ID NO: 2) (P15056 416-766): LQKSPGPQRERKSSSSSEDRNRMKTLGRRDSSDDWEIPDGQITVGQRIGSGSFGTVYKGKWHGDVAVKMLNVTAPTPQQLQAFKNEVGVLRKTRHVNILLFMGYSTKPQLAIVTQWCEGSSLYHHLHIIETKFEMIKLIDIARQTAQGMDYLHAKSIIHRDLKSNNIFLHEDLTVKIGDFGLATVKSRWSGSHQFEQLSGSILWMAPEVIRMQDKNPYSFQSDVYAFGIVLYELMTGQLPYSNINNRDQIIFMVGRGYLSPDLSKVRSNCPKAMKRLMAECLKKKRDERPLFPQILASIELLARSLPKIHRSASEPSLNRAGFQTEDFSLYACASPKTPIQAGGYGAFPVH
Chain of A-Raf kinase (SEQ. ID No: 1) (P10398 other isoform, or with tags, fused parts or gaps Y301D (already in the parent)/Y302D (already in the parent)): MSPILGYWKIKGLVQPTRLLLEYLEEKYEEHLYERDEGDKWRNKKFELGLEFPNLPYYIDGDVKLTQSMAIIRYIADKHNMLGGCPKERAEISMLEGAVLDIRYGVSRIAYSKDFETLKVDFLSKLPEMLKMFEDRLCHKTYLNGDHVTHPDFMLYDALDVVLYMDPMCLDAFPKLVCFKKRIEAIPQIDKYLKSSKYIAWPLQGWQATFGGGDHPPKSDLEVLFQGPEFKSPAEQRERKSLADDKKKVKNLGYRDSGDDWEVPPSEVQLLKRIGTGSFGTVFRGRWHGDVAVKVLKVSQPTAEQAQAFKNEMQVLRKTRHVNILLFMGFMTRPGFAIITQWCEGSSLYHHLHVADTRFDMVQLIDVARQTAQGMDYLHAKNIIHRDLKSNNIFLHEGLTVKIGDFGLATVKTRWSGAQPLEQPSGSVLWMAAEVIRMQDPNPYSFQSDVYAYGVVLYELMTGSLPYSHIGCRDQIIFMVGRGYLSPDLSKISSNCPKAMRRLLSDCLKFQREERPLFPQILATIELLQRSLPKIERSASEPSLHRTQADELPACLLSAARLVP

pIC50 (H2405 cells) | pIC50 [1] | pIC50 [2] | pIC50 (A375 cells) | Structure (SMILES)
6.30 to 7.00 |  |  |  | CNC(=O)c1cc(-c2cc(-c3cc(NC(=O)c4ccnc(C(C)(C)F)c4)ccc3C)cnn2)ccn1 [Example 473]
 | 6.00 to 6.30 | ≥ 7.00 | 6.30 to 7.00 | Cc1ccc(NC(=O)c2cnn(C3CC3)c2)cc1-c1cncc(-c2cc(NC(=O)C3CC3)ncn2)c1 [Example 430]
 | 6.30 to 7.00 | ≥ 7.00 | ≥ 7.00 | Cc1ccc(NC(=O)c2ccnc(C(F)F)c2)cc1-c1cncc(-c2cc(NC(=O)C3CC3)ncn2)c1 [Example 429]
 | 5.00 to 6.00 | ≥ 7.00 | ≥ 7.00 | COC(=O)Nc1cc(-c2cncc(-c3cc(NC(=O)c4ccnc(C5(C#N)CC5)c4)ccc3C)c2)ncn1 [Example 405]
 | 6.30 to 7.00 | ≥ 7.00 | ≥ 7.00 | Cc1ccc(NC(=O)c2cc(C(C)(C)C)on2)cc1-c1cncc(-c2cc(NC(=O)C3CC3)ncn2)c1 [Example 431]
 | 5.00 to 6.00 | ≥ 7.00 | ≥ 7.00 | Cc1ccc(NC(=O)c2cc(C3CC3)on2)cc1-c1cncc(-c2cc(NC(=O)C3CC3)ncn2)c1 [Example 421]
6.30 to 7.00 |  |  |  | CNC(=O)c1cc(-c2cc(-c3cc(NC(=O)c4ccnc(C(C)(C)F)c4)ccc3F)ccn2)ccn1 [Example 479]
5.00 to 6.00 |  |  |  | CNC(=O)c1cc(-c2cc(-c3cc(F)cc(NC(=O)c4ccnc(C(C)(C)F)c4)c3F)ccn2)ccn1 [Example 475]
 | 5.00 to 6.00 | 6.30 to 7.00 | 6.30 to 7.00 | CNC(=O)c1cc(-c2nccc(-c3cc(NC(=O)c4ccnc(C(C)(C)F)c4)c(F)cc3C)n2)ccn1 [Example 427]
6.30 to 7.00 |  |  |  | Cc1ccc(NC(=O)c2ccnc(C(C)(C)F)c2)cc1-c1ccnc(-c2ccnc(C(=O)NC3CN(C)C3)c2)c1 [Example 450]
 | 5.00 to 6.00 | ≥ 7.00 | 6.00 to 6.30 | Cc1ccc(NC(=O)c2ccnc(C(C)(C)F)c2)cc1-c1cncc(-c2ccnc3c2CC(=O)N3)c1 [Example 432]
 | 5.00 to 6.00 | ≥ 7.00 | ≥ 7.00 | COC(=O)Nc1cc(-c2cncc(-c3cc(NC(=O)c4ccnc(C(C)(C)C#N)c4)ccc3C)c2)ncn1 [Example 414]
6.30 to 7.00 |  |  |  | Cc1ncc(NC(=O)c2ccnc(C(C)(F)F)c2)cc1-c1ccnc(-c2ccnc(NC(=O)C3CC3)c2)c1 [Example 466]
 | 5.00 to 6.00 | ≥ 7.00 | ≥ 7.00 | Cc1ncc(NC(=O)c2ccnc(C(C)(C)F)c2)cc1-c1cncc(-c2ccnc(NC(=O)C3CC3)c2)c1 [Example 433]
6.30 to 7.00 |  |  |  | CNC(=O)c1cc(-c2cncc(-c3cc(NC(=O)c4ccnc(C(C)C)c4)ccc3C)c2)ncn1 [Example 446]
6.30 to 7.00 |  |  |  | CNC(=O)c1cc(-c2cc(-c3cc(NC(=O)c4ccnc(C(C)(C)F)c4)cc(F)c3C)ccn2)ccn1 [Example 480]
≥ 7.00 |  |  |  | Cc1ccc(NC(=O)c2ccnc(C(C)(C)F)c2)cc1-c1ccnc(-c2ccnc(NC(=O)C3CC3)c2)c1 [Example 455]
 | 5.00 to 6.00 | 6.30 to 7.00 | 5.00 to 6.00 | COC(=O)Nc1cc(-c2cnnc(-c3cc(NC(=O)c4cn(C(C)C)nn4)ccc3C)c2)ccn1 [Example 409]
≥ 7.00 |  |  |  | CNC(=O)c1cc(-c2cc(-c3cc(NC(=O)c4ccnc(C(C)(C)F)c4)ccc3C)ncn2)ccn1 [Example 474]
 | 5.00 to 6.00 | ≥ 7.00 | ≥ 7.00 | Cc1ncc(NC(=O)c2ccnc(C(C)(C)C#N)c2)cc1-c1cncc(-c2cc(NC(=O)C3CC3)ncn2)c1 [Example 410]
 | 5.00 to 6.00 | 6.00 to 6.30 | 5.00 to 6.00 | COC(=O)Nc1cc(-c2cccc(-c3cc(NC(=O)Cn4cc(C(C)C)nn4)cnc3C)c2)ccn1 [Example 415]
≥ 7.00 |  |  |  | CNC(=O)c1cc(-c2cc(-c3cc(NC(=O)c4ccnc(C(C)(C)F)c4)ccc3C)cc(C)n2)ccn1 [Example 470]
 | 5.00 to 6.00 | 6.30 to 7.00 | 6.30 to 7.00 | CNC(=O)c1cc(-c2cc(-c3cc(NC(=O)c4ccnc(C(C)(C)F)c4)ccc3C)nc(C)n2)ccn1 [Example 428]

pIC50 (H2405 cells) | pIC50 [1] | pIC50 [2] | pIC50 (A375 cells) | Structure (SMILES)
6.00 to 6.30 |  |  |  | CNC(=O)c1cc(-c2cc(-c3cc(NC(=O)c4ccnc(C5CC5)c4)cnc3C)ccn2)ccn1 [Example 462]
 | 5.00 to 6.00 | ≥ 7.00 | ≥ 7.00 | Cc1ccc(NC(=O)c2ccnc(C(C)(C)C#N)c2)cc1-c1cncc(-c2cc(NC(=O)C(C)C)ncn2)c1 [Example 420]
 | 6.00 to 6.30 | ≥ 7.00 | ≥ 7.00 | Cc1ccc(NC(=O)c2ccnc(C(C)(F)F)c2)cc1-c1cncc(-c2cc(NC(=O)C3CC3)ncn2)c1 [Example 419]
6.30 to 7.00 |  |  |  | CNC(=N)c1cc(-c2cc(-c3cc(NC(=O)c4ccnc(C(C)(C)F)c4)ccc3C)ccn2)ccn1 [Example 452]
 | 5.00 to 6.00 | ≥ 7.00 | ≥ 7.00 | COc1ccc(NC(=O)c2ccnc(C(C)(C)C#N)c2)cc1-c1cccc(-c2cc(NC(=O)C3CC3)ncn2)c1 [Example 438]
 | 6.30 to 7.00 | ≥ 7.00 | ≥ 7.00 | Cc1ccc(NC(=O)c2ccnc(C(C)(C)F)c2)cc1-c1cncc(-c2ccnc(NC(=O)C3CC3)c2)c1 [Example 417]
 | 5.00 to 6.00 | ≥ 7.00 | 6.30 to 7.00 | COC(=O)Nc1cc(-c2cc(-c3cc(NC(=O)c4ccnc(C(C)(C)F)c4)ccc3C)nc(C)n2)ccn1 [Example 416]
 | 5.00 to 6.00 | 6.30 to 7.00 | 5.00 to 6.00 | CNC(=O)c1cc(-c2cc(-c3cc(NC(=O)c4ccnc(C(C)(C)C#N)c4)ccc3OC)ccn2)ccn1 [Example 437]
 | 6.30 to 7.00 | ≥ 7.00 | ≥ 7.00 | Cc1ccc(NC(=O)c2cn(C(C)C)nn2)cc1-c1cncc(-c2cc(NC(=O)C3CC3)ncn2)c1 [Example 412]
 | 6.00 to 6.30 | ≥ 7.00 | 6.30 to 7.00 | Cc1ccc(NC(=O)c2cc(C3CC3)n(C)n2)cc1-c1nccc(-c2ccnc(NC(=O)C3CC3)c2)n1 [Example 436]
 | 5.00 to 6.00 | 6.30 to 7.00 | 6.30 to 7.00 | COC(=O)Nc1cc(-c2cccc(-c3cc(NC(=O)c4ccnc(C(C)(C)F)c4)cnc3C)c2)ncn1 [Example 404]
 | 5.00 to 6.00 | ≥ 7.00 | 6.00 to 6.30 | Cc1ccc(NC(=O)c2ccnc(C(C)(C)F)c2)cc1-c1cncc(-c2cc(N)ncn2)c1 [Example 411]
 | 5.00 to 6.00 | ≥ 7.00 | ≥ 7.00 | Cc1cc(F)c(NC(=O)c2ccnc(C(C)(C)F)c2)cc1-c1cncc(-c2cc(NC(=O)C3CC3)ncn2)c1 [Example 423]
 | 5.00 to 6.00 | 6.30 to 7.00 | 6.30 to 7.00 | CNC(=O)c1cc(-c2cncc(-c3cc(NC(=O)c4ccnc(C(C)(C)F)c4)c(F)cc3C)c2)ccn1 [Example 408]
 | 5.00 to 6.00 | 6.30 to 7.00 | 5.00 to 6.00 | Cc1ccc(NC(=O)c2ccnc(C(C)(C)C#N)c2)cc1-c1cncc(-c2cc(N)ncn2)c1 [Example 422]
 | 5.00 to 6.00 | ≥ 7.00 | ≥ 7.00 | COC(=O)Nc1cc(-c2cncc(-c3cc(NC(=O)c4ccnc(C(C)(C)F)c4)ccc3C)c2)ncn1 [Example 425]
 | 6.00 to 6.30 | ≥ 7.00 | ≥ 7.00 | Cc1cc(F)c(NC(=O)c2ccnc(C(C)(C)C#N)c2)cc1-c1cncc(-c2cc(NC(=O)C3CC3)ncn2)c1 [Example 424]
 | 5.00 to 6.00 | ≥ 7.00 | ≥ 7.00 | CNC(=O)c1cc(-c2cncc(-c3cc(NC(=O)c4ccnc(C(C)(C)F)c4)ccc3C)c2)ccn1 [Example 413]
 | 6.30 to 7.00 | ≥ 7.00 | ≥ 7.00 | Cc1ccc(NC(=O)c2ccnc(C(C)C)c2)cc1-c1cncc(-c2cc(NC(=O)C3CC3)ncn2)c1 [Example 434]
 | 5.00 to 6.00 | 6.00 to 6.30 | 5.00 to 6.00 | Cc1ncc(NC(=O)c2ccnc(C(C)(C)C#N)c2)cc1-c1cccc(-c2cnc3ccccn23)c1 [Example 407]
 | 5.00 to 6.00 | ≥ 7.00 | ≥ 7.00 | COC(=O)Nc1cc(-c2cncc(-c3cc(NC(=O)c4ccnc(C(C)(C)F)c4)ccc3C)c2)ccn1 [Example 435]
 | 6.00 to 6.30 | ≥ 7.00 | ≥ 7.00 | Cc1cc(F)c(NC(=O)c2ccnc(C(C)(C)C#N)c2)cc1-c1cncc(-c2ccnc(NC(=O)C3CC3)c2)c1 [Example 418]
 | 6.00 to 6.30 | ≥ 7.00 | ≥ 7.00 | Cc1ncc(NC(=O)c2ccnc(C(C)(C)F)c2)cc1-c1cncc(-c2cc(NC(=O)C3CC3)ncn2)c1 [Example 406]
